Non-standard residues stand in square brackets, D forms with d. Residues, ends and D or L forms follow the SMILES beside them. Nle = CCCC[C@H](N)C(=O)O
Tests used:
Design in all cases: species or system Homo sapiens
[1] = Inhibition of CAPN5 G267S mutant (unknown origin) using DABCYL-TPLKSPPPSPR-EDANS as substrate incubated for 30 mins and measured by High-throughput FRET-based assay
[2] = Inhibition of wild-type CAPN5 (unknown origin)
[3] = Inhibition of CAPN5 R243L mutant (unknown origin)

| IC50 [1] [nM] | IC50 [2] [nM] | IC50 ([3]; read-out: IC50) [nM] | IC50 [3] | Compound |
| --- | --- | --- | --- | --- |
|  | 165 |  | Not Active | CC(=O)N[C@@H](CC(C)C)C(=O)N[C@@H](CC(C)C)C(=O)N[C@H](C=O)CCCNC(=N)N [LEUPEPTIN] |
| 136 |  |  |  | CCCC[C@@H](C=O)NC(=O)[C@H](CC(C)C)NC(=O)[C@H](CC(C)C)NC(C)=O (Ac-Leu-Leu-[Nle]-aldehyde) |
| 1100 | 8.35 |  | Not Active | CCCC[C@@H](C=O)NC(=O)[C@H](CC(C)C)NC(=O)OCc1ccccc1 [CALPEPTIN] |

Continued, molecule first:

| Compound | IC50 [1] [nM] | IC50 [2] [nM] | IC50 ([3]; read-out: IC50) [nM] | IC50 [3] |
| --- | --- | --- | --- | --- |
| CC[C@H](C)[C@H](NC(=O)[C@H](CCC(=O)O)NC(=O)[C@@H](NC(=O)[C@@H](N)CCCCN)[C@@H](C)CC)C(=O)N[C@H](C(=O)N[C@@H](CCCNC(=N)N)C(=O)N[C@@H](CCCCNC)C(=O)N[C@@H](CCCCN)C(=O)N1CCC[C@H]1C(=O)N[C@H](C(=O)N[C@@H](Cc1ccccc1)C(=O)N[C@@H](CCCCN)C(=O)N[C@@H](CCCCN)C(=O)N[C@@H](C)C(=O)N[C@H](C(=O)N[C@H](C(=O)O)C(C)C)[C@@H](C)O)[C@@H](C)CC)C(C)C (HELM PEPTIDE1{K.I.E.I.V.R.[CNCCCC[C@H](N[*:1])C(=O)[*:2]].K.P.I.F.K.K.A.T.V}$$$$V2.0) | 3.6 | 24000 | 29.5 |  |
| CC[C@H](C)[C@H](NC(=O)[C@H](CCC(=O)O)NC(=O)[C@@H](NC(=O)[C@@H](N)CCCCN)[C@@H](C)CC)C(=O)N[C@H](C(=O)N[C@@H](CCCNC(=N)N)C(=O)N[C@@H](CCCCNC)C(=O)N[C@@H](CCCCNC)C(=O)N1CCC[C@H]1C(=O)N[C@H](C(=O)N[C@@H](Cc1ccccc1)C(=O)N[C@@H](CCCCN)C(=O)N[C@@H](CCCCN)C(=O)N[C@@H](C)C(=O)N[C@H](C(=O)N[C@H](C(=O)O)C(C)C)[C@@H](C)O)[C@@H](C)CC)C(C)C (HELM PEPTIDE1{K.I.E.I.V.R.[CNCCCC[C@H](N[*:1])C(=O)[*:2]].[CNCCCC[C@H](N[*:1])C(=O)[*:2]].P.I.F.K.K.A.T.V}$$$$V2.0) | 1200 | 496 | 126 |  |
